Where a SMILES comes first, the peptide text is derived from it.
Key:
[1] = test system: Escherichia coli ATCC 25922; details: radial diffusion assay, n = 3
From the text: (§1) The reaction mixture without defensin added was used as negative control and the defensin alone was used as positive control. […] The strain Salmonella enterica serovar Typhimurium LT2 was kindly provided by Dr Benoît Doublet (INRA, UMR1282 ISP, Nouzilly, France). The strain Streptococcus salivarius was a clinical strain isolated from blood culture, kindly provided by Dr Christine Delorme (INRA, UMR1319 MICALIS, Jouy en Josas, France).
(§2) A Mann-Whitney non-parametric U test was used to compare the minimal inhibitory concentration of each defensin before and after incubation with cathepsins.

[2] = test system: Staphylococcus aureus ATCC 29740; details: radial diffusion assay; defensin alone or reaction mixture after 4 h at 30°C with cathepsin (S:E molar ratio 100), 0.1 M sodium acetate pH 5.5, 2 mM DTT, 0.01% Brij35; mean ± SEM, n = 3; NI: no inhibition detected
From the text: as §1, §2

[3] = target: Human Cat B (Homo sapiens, UniProt P07858); details: 12.5 μM defensin, 125 nM Cat B (S:E 100), 0.1 M sodium acetate pH 5.5, 2 mM DTT, 0.01% Brij35, 4 h, 30°C; RP-HPLC, 220 nm
[4] = target: Human Cat H (Homo sapiens, UniProt P09668); details: 12.5 μM defensin, 125 nM Cat H (S:E 100), 0.1 M sodium acetate pH 5.5, 2 mM DTT, 0.01% Brij35, 4 h, 30°C; RP-HPLC, 220 nm
[5] = target: Human Cat K (Homo sapiens, UniProt P43235); details: 12.5 μM defensin, 125 nM Cat K (S:E 100), 0.1 M sodium acetate pH 5.5, 2 mM DTT, 0.01% Brij35, 4 h, 30°C; RP-HPLC, 220 nm
[6] = target: Human Cat L (Homo sapiens, UniProt P07711); details: 12.5 μM defensin, 125 nM Cat L (S:E 100), 0.1 M sodium acetate pH 5.5, 2 mM DTT, 0.01% Brij35, 4 h, 30°C; RP-HPLC, 220 nm
[7] = target: Human Cat S (Homo sapiens, UniProt P25774); details: 12.5 μM defensin, 125 nM Cat S (S:E 100), 0.1 M sodium acetate pH 5.5, 2 mM DTT, 0.01% Brij35, 4 h, 30°C; RP-HPLC, 220 nm
[8] = test system: trypsin; details: 12.5 μM defensin, 125 nM trypsin (S:E 100), 0.1 M Tris/HCl pH 8.0, 50 mM CaCl2, 100 mM NaCl, 4 h, 30°C; RP-HPLC, 220 nm
Experimental: (§4) Chromatograms were analyzed by running the ChromoQuest Chromatography Workstation (Thermo Fisher Scientific, Les Ulis, France).

[9] = test system: chymotrypsin; details: 12.5 μM defensin, 125 nM chymotrypsin (S:E 100), 0.1 M Tris/HCl pH 7.8, 20 mM CaCl2, 4 h, 30°C; RP-HPLC, 220 nm
Experimental: as §4

[10] = target: Human neutrophil elastase (HNE) (Homo sapiens, UniProt P08246); details: 12.5 μM defensin, 125 nM HNE (S:E 100), 0.05 M HEPES pH 7.4, NP40 0.05%, 150 mM NaCl, 4 h, 30°C; RP-HPLC, 220 nm
Experimental: as §4

[11] = target: Human Cat D (Homo sapiens, UniProt P07339); details: 12.5 μM defensin, 125 nM Cat D (S:E 100), 0.1 M sodium citrate pH 3.5, 200 mM NaCl, 4 h, 30°C; RP-HPLC, 220 nm
Experimental: as §4

[12] = test system: Listeria monocytogenes strain EGD; assay: Radial diffusion antibacterial assay (MIC); format: cell-based; details: Table 3, mean +/- SEM, n = 3
Experimental: (§3) The antibacterial activity of purified AvBD2 and AvBD7 and of each enzyme-AvBD reaction mixture was measured by radial diffusion assay as described previously, allowing the determination of the minimal inhibitory concentration (MIC) against Staphylococcus aureus ATCC 29740 and against Escherichia coli ATCC 25922 as representative Gram-positive and Gram-negative strains, respectively. The reaction mixture without defensin added was used as negative control and the defensin alone was used as positive control. For AvBD7 and its major degradation product, MIC was determined towards three Gram-negative and three Gram-positive bacterial strains, respectively, including Pseudomonas aeruginosa ATCC 25010, Escherichia coli ATCC 25922, Salmonella enterica serovar Typhimurium LT2 ATCC 700720, Listeria monocytogenes strain EGD, Staphylococcus aureus ATCC 29740, and Streptococcus salivarius JIM 8780. The strain Salmonella enterica serovar Typhimurium LT2 was kindly provided by Dr Benoît Doublet (INRA, UMR1282 ISP, Nouzilly, France). The strain Streptococcus salivarius was a clinical strain isolated from blood culture, kindly provided by Dr Christine Delorme (INRA, UMR1319 MICALIS, Jouy en Josas, France).

[13] = test system: Pseudomonas aeruginosa ATCC 25010; assay: Radial diffusion antibacterial assay (MIC); format: cell-based; details: Table 3, mean +/- SEM, n = 3
Experimental: as §3

[14] = test system: Salmonella enterica serovar Typhimurium LT2 ATCC 700720; assay: Radial diffusion antibacterial assay (MIC); format: cell-based; details: Table 3, mean +/- SEM, n = 3
Experimental: as §3

[15] = test system: Streptococcus salivarius JIM 8780; assay: Radial diffusion antibacterial assay (MIC); format: cell-based; details: Table 3, mean +/- SEM, n = 3
Experimental: as §3

[16] = test system: Cat D; assay: 125 nM Cat D in 0.1 M sodium citrate buffer, pH 3.5, 200 mM NaCl; details: human, 30°C, up to 4 h
[17] = test system: chymotrypsin; assay: 125 nM chymotrypsin in 0.1 M Tris/HCl buffer, pH 7.8, 20 mM CaCl2; details: 30°C, up to 4 h
[18] = test system: trypsin; assay: 125 nM trypsin in 0.1 M Tris/HCl buffer, pH 8.0, 50 mM CaCl2, 100 mM NaCl; details: 30°C, up to 4 h
[19] = test system: Human neutrophil elastase (HNE); assay: 125 nM HNE in 0.05 M HEPES buffer, pH 7.4, NP40 0.05% 150 mM NaCl; details: 30°C, up to 4 h
[20] = test system: Cat H; assay: 125 nM Cat H in 0.1 M sodium acetate buffer, pH 5.5 containing 2 mM DTT and 0.01% Brij35; details: human, 30°C, up to 4 h
[21] = test system: Cat B; assay: 125 nM Cat B in 0.1 M sodium acetate buffer, pH 5.5 containing 2 mM DTT and 0.01% Brij35; details: human, 30°C, up to 4 h
[22] = test system: Cat K; assay: 125 nM Cat K in 0.1 M sodium acetate buffer, pH 5.5 containing 2 mM DTT and 0.01% Brij35; details: human, 30°C, up to 4 h
[23] = test system: Cat L; assay: 125 nM Cat L in 0.1 M sodium acetate buffer, pH 5.5 containing 2 mM DTT and 0.01% Brij35; details: human, 30°C, up to 4 h
[24] = test system: Cat S; assay: 125 nM Cat S in 0.1 M sodium acetate buffer, pH 5.5 containing 2 mM DTT and 0.01% Brij35; details: human, 30°C, up to 4 h

Sequence of Human neutrophil elastase (HNE) (Homo sapiens, UniProt P08246) (P08246 30-267): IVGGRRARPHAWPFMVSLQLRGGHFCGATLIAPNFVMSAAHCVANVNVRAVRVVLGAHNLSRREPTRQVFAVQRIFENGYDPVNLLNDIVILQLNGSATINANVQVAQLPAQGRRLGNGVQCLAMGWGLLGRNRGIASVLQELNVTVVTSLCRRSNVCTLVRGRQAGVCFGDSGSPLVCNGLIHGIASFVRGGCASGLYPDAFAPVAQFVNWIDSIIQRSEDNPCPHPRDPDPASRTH
Sequence of Human Cat L (P07711 114-333): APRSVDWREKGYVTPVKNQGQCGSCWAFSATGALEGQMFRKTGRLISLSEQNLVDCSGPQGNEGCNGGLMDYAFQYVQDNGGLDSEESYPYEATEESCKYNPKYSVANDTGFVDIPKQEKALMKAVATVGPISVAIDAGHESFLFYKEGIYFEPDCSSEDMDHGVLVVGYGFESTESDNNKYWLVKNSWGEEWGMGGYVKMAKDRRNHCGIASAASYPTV
Sequence of Human Cat D (P07339 65-412): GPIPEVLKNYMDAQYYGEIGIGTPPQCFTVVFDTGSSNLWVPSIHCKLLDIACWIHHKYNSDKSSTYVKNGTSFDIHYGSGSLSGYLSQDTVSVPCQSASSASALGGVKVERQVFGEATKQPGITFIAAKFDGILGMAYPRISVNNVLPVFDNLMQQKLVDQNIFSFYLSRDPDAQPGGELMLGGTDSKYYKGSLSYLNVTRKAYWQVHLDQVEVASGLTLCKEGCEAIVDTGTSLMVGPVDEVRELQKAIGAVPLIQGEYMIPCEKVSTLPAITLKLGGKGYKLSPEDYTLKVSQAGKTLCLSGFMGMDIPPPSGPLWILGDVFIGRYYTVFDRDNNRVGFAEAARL
Sequence of Human Cat S (P25774 115-331): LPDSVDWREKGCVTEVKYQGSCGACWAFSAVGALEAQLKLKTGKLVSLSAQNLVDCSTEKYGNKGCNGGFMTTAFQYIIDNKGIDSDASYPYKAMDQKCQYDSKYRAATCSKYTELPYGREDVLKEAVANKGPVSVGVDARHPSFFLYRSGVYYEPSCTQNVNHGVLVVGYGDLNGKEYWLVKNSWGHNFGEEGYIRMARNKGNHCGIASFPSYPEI
Sequence of Human Cat K (P43235 115-329): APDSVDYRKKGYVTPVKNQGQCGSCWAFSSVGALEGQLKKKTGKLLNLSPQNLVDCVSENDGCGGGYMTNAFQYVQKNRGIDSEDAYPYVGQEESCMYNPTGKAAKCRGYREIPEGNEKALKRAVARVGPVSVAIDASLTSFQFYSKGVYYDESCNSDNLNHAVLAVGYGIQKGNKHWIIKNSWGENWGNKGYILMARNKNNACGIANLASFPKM
Sequence of Human Cat H (P09668 98-335): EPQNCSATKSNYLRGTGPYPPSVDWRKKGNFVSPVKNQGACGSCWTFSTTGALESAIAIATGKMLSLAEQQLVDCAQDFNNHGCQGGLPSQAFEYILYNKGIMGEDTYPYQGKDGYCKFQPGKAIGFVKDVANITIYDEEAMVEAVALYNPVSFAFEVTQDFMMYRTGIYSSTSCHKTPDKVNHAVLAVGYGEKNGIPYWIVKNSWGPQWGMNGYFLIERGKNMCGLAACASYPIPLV

CC[C@H](C)[C@@H]1NC(=O)[C@H](CC(C)C)NC(=O)[C@H](Cc2c[nH]cn2)NC(=O)[C@H](CO)NC(=O)[C@@H]2CCCN2C(=O)[C@@H]2CSSC[C@@H](C(=O)N[C@@H](CCCCN)C(=O)N[C@@H](Cc3c[nH]c4ccccc34)C(=O)N3CCC[C@H]3C(=O)N[C@@H](Cc3c[nH]c4ccccc34)C(=O)N[C@@H](CC(N)=O)C(=O)N[C@@H](C)C(=O)O)NC(=O)[C@@H]3CSSC[C@H](NC(=O)[C@H](Cc4ccccc4)NC(=O)[C@@H](N)CC(C)C)C(=O)N[C@@H](CCCCN)C(=O)NCC(=O)NCC(=O)N[C@@H](CO)C(=O)N[C@@H](CSSC[C@H](NC(=O)[C@H](CO)NC(=O)CNC(=O)[C@H](C(C)C)NC(=O)[C@H](CCCCN)NC1=O)C(=O)N[C@@H](Cc1ccccc1)C(=O)NCC(=O)N[C@@H](Cc1ccccc1)C(=O)N[C@@H](CCCNC(=N)N)C(=O)N[C@@H](CO)C(=O)N3)C(=O)N[C@@H](Cc1c[nH]cn1)C(=O)N[C@@H](Cc1ccccc1)C(=O)NCC(=O)NCC(=O)N2 [AvBD2] (HELM PEPTIDE1{L.F.C.K.G.G.S.C.H.F.G.G.C.P.S.H.L.I.K.V.G.S.C.F.G.F.R.S.C.C.K.W.P.W.N.A}$PEPTIDE1,PEPTIDE1,3:R3-29:R3|PEPTIDE1,PEPTIDE1,8:R3-23:R3|PEPTIDE1,PEPTIDE1,13:R3-30:R3$$$V2.0)
MIC (μM) E. Coli ([1]; defensin alone or reaction mixture after 4 h at 30°C with cathepsin (S:E molar ratio 100), 0.1 M sodium acetate pH 5.5, 2 mM DTT, 0.01% Brij35, mean ± SEM, NI: no inhibition detected): 3 ± 2 µM | MIC (μM) S. aureus [2]: 1 ± 0 µM | Hydrolysis by Cat B [3]: partially degraded | Hydrolysis by Cat H [4]: resistant to hydrolysis | Hydrolysis by Cat K [5]: totally digested | Hydrolysis by Cat L [6]: partially degraded | Hydrolysis by Cat S [7]: partially degraded | Hydrolysis by trypsin [8]: did not cleave | Hydrolysis by chymotrypsin [9]: did not cleave | Hydrolysis by neutrophil elastase [10]: did not cleave | Hydrolysis by Cat D [11]: did not cleave

CC[C@H](C)[C@H](N)C(=O)N1CCC[C@H]1C(=O)N[C@@H](CCCNC(=N)N)C(=O)N1CCC[C@H]1C(=O)N[C@H](C(=O)N[C@@H](CC(=O)O)C(=O)N[C@H](C(=O)N[C@H]1CSSC[C@@H]2NC(=O)[C@H](CO)NC(=O)CNC(=O)[C@H]([C@@H](C)CC)NC(=O)CNC(=O)[C@H](CC(N)=O)NC(=O)[C@H](CC(N)=O)NC(=O)[C@@H]3CSSC[C@H](NC(=O)[C@H]([C@@H](C)CC)NC(=O)CNC(=O)[C@H](CC(N)=O)NC(=O)[C@H](CCCNC(=N)N)NC(=O)[C@H](CC(C)C)NC(=O)[C@H](CCCNC(=N)N)NC1=O)C(=O)N[C@@H](Cc1ccccc1)C(=O)N1CCC[C@H]1C(=O)NCC(=O)N[C@@H]([C@@H](C)CC)C(=O)N[C@@H](CSSC[C@@H](C(=O)N[C@@H](C)C(=O)N[C@@H](CCCNC(=N)N)C(=O)NCC(=O)N[C@@H](Cc1c[nH]c4ccccc14)C(=O)N[C@@H](CCCNC(=N)N)C(=O)N[C@@H](CO)C(=O)O)NC2=O)C(=O)N[C@@H](CCCNC(=N)N)C(=O)N[C@@H](CCCNC(=N)N)C(=O)N1CCC[C@H]1C(=O)N[C@@H](Cc1ccc(O)cc1)C(=O)N[C@@H](Cc1ccc(O)cc1)C(=O)N[C@@H](Cc1c[nH]c2ccccc12)C(=O)N[C@@H]([C@@H](C)CC)C(=O)NCC(=O)N[C@@H]([C@@H](C)O)C(=O)N3)[C@@H](C)O)[C@@H](C)CC [Ile4-AvBD7]
MIC (μM) Escherichia coli ([1]; Table 3, mean +/- SEM): 0.5 (± 0.1) μM | MIC (μM) Listeria monocytogenes [12]: 0.2 (± 0.1) μM | MIC (μM) Pseudomonas aeruginosa [13]: 0.2 (± 0.1) μM | MIC (μM) Salmonella Typhimurium [14]: 1.4 (± 0.9) μM | MIC (μM) Streptococcus salivarius [15]: 1.0 (± 0.5) μM

LFCKGGSCHFGGCPSHLIKVGSCFGFRSCCKWPWNA
not cleaved [16]: did not cleave (4 hours) | not cleaved [17]: did not cleave (4 hours) | not cleaved [18]: did not cleave (4 hours) | not cleaved [19]: did not cleave (4 hours) | not cleaved [20]: resistant to hydrolysis (4 h)

QPFIPRPIDTCRLRNGICFPGICRRPYYWIGTCNNGIGSCCARGWRS
not cleaved [16]: did not cleave (4 hours) | not cleaved [17]: did not cleave (4 hours) | not cleaved [18]: did not cleave (4 hours) | not cleaved [19]: did not cleave (4 hours) | not cleaved [21]: fully resistant to hydrolysis (4 h) | not cleaved [20]: resistant to hydrolysis (4 h) | cleaved bond [22]: Phe3-Ile4 | not cleaved [23]: fully resistant to hydrolysis (4 h) | not cleaved [24]: fully resistant to hydrolysis (4 h)

From article PMC4999073 (PLoS ONE, 2016)
